Data from patent publication US20240409585A1, “MACROCYCLIC IMMUNOMODULATORS” (priority 2021, published 2024).
Numbered stars: 1 amine (or outer) side, 2 acyl side, 3 side chain; on linkers, the order of the positions; unused ones are H or OH. Bridge positions count the residues as written; N and C are the ends. Square brackets hold non-standard residues; d marks the D form. Peptide text beside a SMILES is read from it. * marks the point of attachment. X51 = O=C([C@H](Cc1cccc(-c2cccc(S(=O)(=O)N3CCOCC3)c2)c1)N[*:1])[*:2]; Bip(4'-COOH) = N[C@@H](Cc1ccc(-c2ccc(C(=O)O)cc2)cc1)C(=O)O; Bip(4'-NHAc) = CC(=O)Nc1ccc(-c2ccc(C[C@H](N)C(=O)O)cc2)cc1; X24 = COc1ccccc1-c1cn(C[C@H](N[*:1])C(=O)[*:2])nn1; Phe(3-CF3) = N[C@@H](Cc1cccc(C(F)(F)F)c1)C(=O)O; Ala(morpholin-4-yl) = N[C@@H](CN1CCOCC1)C(=O)O; Phe(4-CONH2) = NC(=O)c1ccc(C[C@H](N)C(=O)O)cc1; Phe(4-COOH) = N[C@@H](Cc1ccc(C(=O)O)cc1)C(=O)O; Bip = N[C@@H](Cc1ccc(-c2ccccc2)cc1)C(=O)O; Phe(3-Me) = Cc1cccc(C[C@H](N)C(=O)O)c1; Phe(4-Me) = Cc1ccc(C[C@H](N)C(=O)O)cc1; Abu(3S-NH2) = C[C@H](N)[C@H](N)C(=O)O; X11 = CC(N)[C@H](N[*:1])C(=O)[*:2]; hPhe = N[C@@H](CCc1ccccc1)C(=O)O; Cha = N[C@@H](CC1CCCCC1)C(=O)O; Propanoyl(3-OH) = O=C(CCO)*; Carboxymethyl = O=C(O)C*; NMeA = CN[C@@H](C)C(=O)O; Orn = NCCC[C@H](N)C(=O)O; Dab = NCC[C@H](N)C(=O)O; Dap = NC[C@H](N)C(=O)O

The compounds below were run against T1, Alexa fluor-647 labeled human PD-L1-Ig binding to Jurkat cell line over-expressing human PD-1 (Homo sapiens, UniProt Q15116) (assay: Jurkat-PD-1 Cell Binding High-Content Screening Assay (CBA): Method 3 (Alexa fluor-647 labeled PD-L1-Ig)). Settings: Jurkat-PD-1 cells, Alexa fluor-647 labeled PD-L1-Ig 177 nM; head μM; read-out: CBA Method 3 μM.
T1 construct: expressed in transfected cells; host or cells: Jurkat
T1 sequence (Q15116 25-288): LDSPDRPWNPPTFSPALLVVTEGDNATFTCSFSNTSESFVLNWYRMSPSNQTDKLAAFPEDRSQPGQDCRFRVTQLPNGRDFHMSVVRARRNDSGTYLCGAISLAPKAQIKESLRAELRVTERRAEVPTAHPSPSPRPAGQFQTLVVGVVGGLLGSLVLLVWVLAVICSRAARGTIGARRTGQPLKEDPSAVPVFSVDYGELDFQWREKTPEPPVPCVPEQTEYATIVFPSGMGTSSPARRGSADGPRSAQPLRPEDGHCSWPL
Procedure, shortened: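 Readout by high-content imaging of PFA-fixed, Hoechst-stained cells after 1 h with 177 nM (final) Alexa fluor-647 PD-L1-Ig. Compound was added first to hPD-1 Jurkat cells in RPMI plus 10% FCS for 2 h at 37 °C.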

| Compound | IC50 [µM] |
| --- | --- |
| CC(C)C[C@H]1NC(=O)[C@H](C)N(C)C(=O)[C@H](Cc2ccc(C(=O)O)cc2)NC(=O)[C@H](Cc2ccc(-c3ccccc3)cc2)NC(=O)[C@H](Cc2ccc(C(=O)O)cc2)NC(=O)[C@H](Cc2cccc(C(F)(F)F)c2)NC(=O)[C@H](CC(=O)N[C@@H](CC(=O)O)C(=O)O)NC(=O)[C@H](Cc2ccc(C(=O)O)cc2)NC(=O)[C@H]([C@H](C)N)NC(=O)CSC[C@@H](C(=O)N[C@@H](CCN)C(N)=O)NC(=O)[C@H](CC(N)=O)NC(=O)[C@H](C(C)C)NC(=O)[C@H](CC2CCCCC2)NC(=O)[C@H](CCN)NC1=O [Example 5102] ({CH2CO}-[Abu(3S-NH2)][Phe(4-COOH)]D(Asp)[Phe(3-CF3)][Phe(4-COOH)][Bip][Phe(4-COOH)][NMeA][dL][Dab][Cha]VNC[Dab]-NH2; thioether N-14) | 0.51 |
| COc1ccccc1-c1cn(C[C@@H]2NC(=O)[C@H](Cc3ccc(C(=O)O)cc3)NC(=O)[C@H](Cc3cccc(C(F)(F)F)c3)NC(=O)[C@H](CC(=O)O)NC(=O)[C@H](Cc3ccc(C(=O)O)cc3)NC(=O)[C@H](CN3CCOCC3)NC(=O)CSC[C@@H](C(=O)N[C@@H](CCN)C(N)=O)NC(=O)[C@H](CCC(=O)O)NC(=O)[C@H](C(C)C)NC(=O)[C@H](CC3CCCCC3)NC(=O)[C@H](CCN)NC(=O)[C@@H](CC(C)C)NC(=O)[C@H](C)N(C)C(=O)[C@H](Cc3ccc(C(=O)O)cc3)NC2=O)nn1 [Example 5197] ({CH2CO}-[Ala(morpholin-4-yl)][Phe(4-COOH)]D[Phe(3-CF3)][Phe(4-COOH)][X24][Phe(4-COOH)][NMeA][dL][Dab][Cha]VEC[Dab]-NH2; thioether N-14) | 0.45 |
| Cc1cccc(C[C@@H]2NC(=O)[C@H](CC(=O)O)NC(=O)[C@H](Cc3ccc(OCC(=O)O)cc3)NC(=O)[C@H](CN3CCOCC3)NC(=O)CSC[C@@H](C(=O)N[C@@H](CCN)C(N)=O)NC(=O)[C@H](CCCN)NC(=O)[C@H](C(C)C)NC(=O)[C@H](CC3CCCCC3)NC(=O)[C@H](CCN)NC(=O)[C@@H](CC(C)C)NC(=O)[C@H](C)N(C)C(=O)[C@H](CCC(N)=O)NC(=O)[C@H](Cc3ccc(-c4ccccc4)cc3)NC(=O)[C@H](Cc3cccc(-c4cccc(S(=O)(=O)N5CCOCC5)c4)c3)NC2=O)c1 [Example 5106] ({CH2CO}-[Ala(morpholin-4-yl)]Y(Carboxymethyl)D[Phe(3-Me)][X51][Bip]Q[NMeA][dL][Dab][Cha]V[Orn]C[Dab]-NH2; thioether N-14) | 0.06 |
| CC(C)C[C@@H]1NC(=O)[C@H](Cc2c[nH]c3ccccc23)NC(=O)[C@H](CC(=O)O)NC(=O)[C@H](Cc2ccc(C(=O)O)cc2)NC(=O)[C@H](Cc2ccc(OCC(=O)O)cc2)NC(=O)CSC[C@@H](C(=O)N[C@@H](CCN)C(N)=O)NC(=O)[C@H](C(C)C)NC(=O)[C@H]([C@@H](C)O)NC(=O)[C@H](CC2CCCCC2)NC(=O)[C@H](CCN)NC(=O)[C@@H](CC(C)C)NC(=O)[C@H](C)N(C)C(=O)[C@H](C(C)C)NC(=O)[C@H](Cc2ccc(-c3ccccc3)cc2)NC1=O [Example 5141] ({CH2CO}-Y(Carboxymethyl)[Phe(4-COOH)]DWL[Bip]V[NMeA][dL][Dab][Cha]TVC[Dab]-NH2; thioether N-14) | 0.02 |
| Cc1cccc(C[C@@H]2NC(=O)[C@H](CC(=O)O)NC(=O)[C@H](Cc3ccc(OCC(=O)O)cc3)NC(=O)[C@H](CN)NC(=O)CSC[C@@H](C(=O)N[C@@H](CCN)C(N)=O)NC(=O)[C@H](CCCN)NC(=O)[C@H](C(C)C)NC(=O)[C@H](CC3CCCCC3)NC(=O)[C@H](CCN)NC(=O)[C@@H](CC(C)C)NC(=O)[C@H](C)N(C)C(=O)[C@H](CCC(N)=O)NC(=O)[C@H](Cc3ccc(-c4ccccc4)cc3)NC(=O)[C@H](Cc3ccc(C(=O)O)cc3)NC2=O)c1 [Example 5178] ({CH2CO}-[Dap]Y(Carboxymethyl)D[Phe(3-Me)][Phe(4-COOH)][Bip]Q[NMeA][dL][Dab][Cha]V[Orn]C[Dab]-NH2; thioether N-14) | 0.3 |
| CC(C)C[C@H]1NC(=O)[C@H](C)N(C)C(=O)[C@H](Cc2ccc(C(N)=O)cc2)NC(=O)[C@H](Cc2ccc(-c3ccccc3)cc2)NC(=O)[C@H](Cc2ccc(OCC(=O)O)cc2)NC(=O)[C@H](Cc2cccc(C(F)(F)F)c2)NC(=O)[C@H](CC(=O)O)NC(=O)[C@H](Cc2ccc(O)cc2)NC(=O)[C@H](CN2CCOCC2)NC(=O)CSC[C@@H](C(=O)N[C@@H](CCN)C(N)=O)NC(=O)[C@H](CCCN)NC(=O)[C@H](C(C)C)NC(=O)[C@H](CC2CCCCC2)NC(=O)[C@H](CCN)NC1=O [Example 5262] ({CH2CO}-[Ala(morpholin-4-yl)]YD[Phe(3-CF3)]Y(Carboxymethyl)[Bip][Phe(4-CONH2)][NMeA][dL][Dab][Cha]V[Orn]C[Dab]-NH2; thioether N-14) | 0.11 |
| CC(C)C[C@H]1NC(=O)[C@H](C)N(C)C(=O)[C@H](Cc2ccc(C(=O)O)cc2)NC(=O)[C@H](Cc2ccc(-c3ccccc3)cc2)NC(=O)[C@H](Cc2ccc(-c3ccc(C(=O)O)cc3)cc2)NC(=O)[C@H](Cc2cccc(C(F)(F)F)c2)NC(=O)[C@H](CC(=O)O)NC(=O)[C@H](Cc2ccc(C(=O)O)cc2)NC(=O)[C@H](Cc2ccc(OCC(=O)O)cc2)NC(=O)CSC[C@@H](C(=O)N[C@@H](CCN)C(N)=O)NC(=O)[C@H](CCC(=O)O)NC(=O)[C@H](C(C)C)NC(=O)[C@H](CC2CCCCC2)NC(=O)[C@H](CCN)NC1=O [Example 5164] ({CH2CO}-Y(Carboxymethyl)[Phe(4-COOH)]D[Phe(3-CF3)][Bip(4'-COOH)][Bip][Phe(4-COOH)][NMeA][dL][Dab][Cha]VEC[Dab]-NH2; thioether N-14) | 0.15 |

Same assay, conditions: Jurkat-PD-1 cells, Alexa fluor-647 labeled PD-L1-Ig 177 nM; nM; read-out: CBA Method 3

| Compound | IC50 [µM] |
| --- | --- |
| CC(C)C[C@H]1NC(=O)[C@H](C)N(C)C(=O)[C@H](CCC(N)=O)NC(=O)[C@H](Cc2ccc(-c3ccccc3)cc2)NC(=O)[C@H](CCc2ccccc2)NC(=O)[C@H](Cc2cccc(C(F)(F)F)c2)NC(=O)[C@H](CC(=O)N[C@@H](CC(=O)O)C(=O)O)NC(=O)[C@H](Cc2ccc(OCC(=O)O)cc2)NC(=O)[C@H](CN2CCOCC2)NC(=O)CSC[C@@H](C(=O)N[C@@H](CCN)C(N)=O)NC(=O)[C@H](CCCN)NC(=O)[C@H](C(C)C)NC(=O)[C@H](CC2CCCCC2)NC(=O)[C@H](CCN)NC1=O [Example 5280] ({CH2CO}-[Ala(morpholin-4-yl)]Y(Carboxymethyl)D(Asp)[Phe(3-CF3)][hPhe][Bip]Q[NMeA][dL][Dab][Cha]V[Orn]C[Dab]-NH2; thioether N-14) | 0.0046 |
| CC(=O)Nc1ccc(-c2ccc(C[C@@H]3NC(=O)[C@H](Cc4cccc(C(F)(F)F)c4)NC(=O)[C@H](CC(=O)O)NC(=O)[C@H](Cc4ccc(C(=O)O)cc4)NC(=O)[C@H](C(C)N)NC(=O)CSC[C@@H](C(=O)N[C@@H](CCN)C(N)=O)NC(=O)[C@H](CNC(=O)CCO)NC(=O)[C@H](C(C)C)NC(=O)[C@H](CC4CCCCC4)NC(=O)[C@H](CCN)NC(=O)[C@@H](CC(C)C)NC(=O)[C@H](C)N(C)C(=O)[C@H](Cc4ccc(C(N)=O)cc4)NC(=O)[C@H](Cc4ccc(-c5ccccc5)cc4)NC3=O)cc2)cc1 (stereo partly drawn) [Example 5148] ({CH2CO}-[X11][Phe(4-COOH)]D[Phe(3-CF3)][Bip(4'-NHAc)][Bip][Phe(4-CONH2)][NMeA][dL][Dab][Cha]V[Dap](Propanoyl(3-OH))C[Dab]-NH2; thioether N-14) | 0.0009 |
| Cc1cccc(C[C@@H]2NC(=O)[C@H](CC(=O)O)NC(=O)[C@H](Cc3ccc(OCC(=O)O)cc3)NC(=O)[C@H](CCC(=O)O)NC(=O)CSC[C@@H](C(=O)N[C@@H](CCN)C(N)=O)NC(=O)[C@H](CCCN)NC(=O)[C@H](C(C)C)NC(=O)[C@H](CC3CCCCC3)NC(=O)[C@H](CCN)NC(=O)[C@@H](CC(C)C)NC(=O)[C@H](C)N(C)C(=O)[C@H](CCC(N)=O)NC(=O)[C@H](Cc3ccc(-c4ccccc4)cc3)NC(=O)[C@H](Cc3ccc(C(=O)O)cc3)NC2=O)c1 [Example 5170] ({CH2CO}-EY(Carboxymethyl)D[Phe(3-Me)][Phe(4-COOH)][Bip]Q[NMeA][dL][Dab][Cha]V[Orn]C[Dab]-NH2; thioether N-14) | 0.0059 |
| CC(C)C[C@H]1NC(=O)[C@H](C)N(C)C(=O)[C@H](Cc2ccc(OCC(=O)O)cc2)NC(=O)[C@H](Cc2ccc(-c3ccccc3)cc2)NC(=O)[C@H](Cc2ccc(OCC(=O)O)cc2)NC(=O)[C@H](Cc2c[nH]c3ccccc23)NC(=O)[C@H](CC(=O)O)NC(=O)[C@H](Cc2ccc(-c3ccc(C(=O)O)cc3)cc2)NC(=O)[C@H](CN2CCOCC2)NC(=O)CSC[C@@H](C(=O)N[C@@H](CCN)C(N)=O)NC(=O)[C@H](CCC(=O)O)NC(=O)[C@H](C(C)C)NC(=O)[C@H](CC2CCCCC2)NC(=O)[C@H](CCN)NC1=O [Example 5117] ({CH2CO}-[Ala(morpholin-4-yl)][Bip(4'-COOH)]DWY(Carboxymethyl)[Bip]Y(Carboxymethyl)[NMeA][dL][Dab][Cha]VEC[Dab]-NH2; thioether N-14) | 0.0097 |
| Cc1ccc(C[C@@H]2NC(=O)CSC[C@@H](C(=O)N[C@@H](CCN)C(N)=O)NC(=O)[C@H](CCCN)NC(=O)[C@H](C(C)C)NC(=O)[C@H](CC3CCCCC3)NC(=O)[C@H](CCN)NC(=O)[C@@H](CC(C)C)NC(=O)[C@H](C)N(C)C(=O)[C@H](CCC(N)=O)NC(=O)[C@H](Cc3ccc(-c4ccccc4)cc3)NC(=O)[C@H](Cc3ccc(C(=O)O)cc3)NC(=O)[C@H](Cc3cccc(C)c3)NC(=O)[C@H](CC(=O)O)NC(=O)[C@H](Cc3ccc(OCC(=O)O)cc3)NC2=O)cc1 [Example 5289] ({CH2CO}-[Phe(4-Me)]Y(Carboxymethyl)D[Phe(3-Me)][Phe(4-COOH)][Bip]Q[NMeA][dL][Dab][Cha]V[Orn]C[Dab]-NH2; thioether N-14) | 0.0008 |
